Among the test systems are SF-295 CNS; IGROV1 ovarian; NCI-H522 lung; MOLT-4 leukemia; KM20L2 colon; K-562 leukemia; DMS 273 small cell lung; 786-0 renal; HOP-92 NSCLC; DLD-1 colon; SNB-75 CNS; T-47D breast; MDA-MB-231 breast; HS 578T breast.
Assay in all cases: DTP human tumour cell line panel, 48 h

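In this assay, cells in 96-well plates receive the compound at five concentrations for 48 hours. Endpoints are linearly interpolated between the surrounding concentrations. GI50 = concentration required for 50% inhibition of growth. TGI is the concentration that stops growth completely.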 Where a SMILES comes first, the peptide text is derived from it. [ ]: non-standard residue; d: D form. The star is where a group is joined. Octanoyl = CCCCCCCC(=O)*; Aib = CC(C)(N)C(=O)O; tBu = CC(C)(C)*

By TGI is commonly meant the concentration giving total growth inhibition. Higher therefore signals less potent growth arrest. As to `Clc1c(Cl)c2c(Cl)c(Cl)c1C[P+](c1ccccc1)(c1ccccc1)CC[P+](c1ccccc1)(c1ccccc1)Cc1c(Cl)c(Cl)c(c(Cl)c1Cl)C[P+](c1ccccc1)(c1ccccc1)CC[P+](c1ccccc1)(c1ccccc1)C2`, the TGI in the experiment with SF-295 CNS was determined as 12.6 µM; with IGROV1 ovarian, 12.4 µM; in the experiment on NCI-H522 lung, 9.26 µM; in the experiment on MOLT-4 leukemia, 10.5 µM; with KM20L2 colon, 12.9 µM; with K-562 leukemia, 9.17 µM. In addition, the TGI with DMS 273 small cell lung was 6.59 µM; with 786-0 renal it was 19.5 µM; in the experiment on HOP-92 NSCLC, 6.31 µM; in the experiment on DLD-1 colon it was 13.2 µM; in the experiment with SNB-75 CNS, 14.2 µM.
Turning to `CC(C)n1c2c([n+](C)c1/C=C/c1ccccc1)C(=O)c1ccccc1C2=O`, the TGI came to 2.52 µM in the experiment on SF-295 CNS; 0.0688 µM in the experiment on IGROV1 ovarian; 0.61 µM in the experiment on T-47D breast; 0.15 µM in the experiment with NCI-H522 lung; 0.745 µM in the experiment with MOLT-4 leukemia; 1.31 µM in the experiment on KM20L2 colon. The TGI with MDA-MB-231 breast worked out at 0.884 µM; in the experiment with K-562 leukemia, 9.61 µM; with HS 578T breast, 7.8 µM; with DMS 273 small cell lung, 0.341 µM; with 786-0 renal, 8.11 µM; in the experiment on HOP-92 NSCLC, 1.48 µM. The TGI came to 3.79 µM in the experiment on DLD-1 colon and 1.48 µM in the experiment with SNB-75 CNS.
For `CC(C)OP(=O)(OC(C)C)C(=Nc1ccccc1)NNc1ccc([N+](=O)[O-])cc1`, the TGI with NCI-H522 lung is 58 µM; in the experiment on MOLT-4 leukemia it was 41.9 µM; in the experiment on KM20L2 colon, greater than 100 µM; with K-562 leukemia, greater than 100 µM; in the experiment on DMS 273 small cell lung, 59 µM; in the experiment on 786-0 renal, 83.3 µM. For the same compound, the TGI in the experiment with HOP-92 NSCLC is 40.2 µM; with DLD-1 colon, greater than 100 µM; with SNB-75 CNS, greater than 100 µM.
For the compound `O=C(O)CC/C(=N\Nc1nsc2ccccc12)c1ccc(Cl)cc1`, the TGI in the experiment with SF-295 CNS is greater than 100 µM; with IGROV1 ovarian it was greater than 100 µM; in the experiment on T-47D breast it was greater than 100 µM; in the experiment with NCI-H522 lung it was greater than 100 µM; with MOLT-4 leukemia, 73.5 µM; in the experiment with KM20L2 colon, greater than 100 µM. Also, the TGI was 93.2 µM in the experiment with MDA-MB-231 breast; greater than 100 µM in the experiment with K-562 leukemia; greater than 100 µM in the experiment with HS 578T breast; 41.2 µM in the experiment on DMS 273 small cell lung; greater than 100 µM with 786-0 renal; greater than 100 µM in the experiment on HOP-92 NSCLC. The compound further registered a TGI with SNB-75 CNS of 73.1 µM.
The GI50 is the concentration that inhibits growth by half. As for `O=[N+]([O-])O.[Ga]`, the TGI in the experiment on SF-295 CNS was 1240 µM; with IGROV1 ovarian it was greater than 7220 µM; in the experiment on T-47D breast, greater than 9010 µM; with NCI-H522 lung, 4490 µM; in the experiment with MOLT-4 leukemia, 2130 µM; in the experiment with KM20L2 colon, greater than 10000 µM. The TGI is greater than 10000 µM in the experiment with MDA-MB-231 breast; greater than 8480 µM in the experiment on K-562 leukemia; greater than 10000 µM with HS 578T breast; 6900 µM in the experiment on DMS 273 small cell lung; greater than 10000 µM in the experiment with 786-0 renal; 3700 µM in the experiment with HOP-92 NSCLC. The TGI is greater than 10000 µM in the experiment on DLD-1 colon and greater than 7110 µM in the experiment on SNB-75 CNS. For the same compound, the GI50 with KM20L2 colon was 1270 µM; in the experiment on DMS 273 small cell lung it was 470 µM; in the experiment on HOP-92 NSCLC it was 673 µM; in the experiment on DLD-1 colon, 3500 µM; with SNB-75 CNS, 1250 µM.
For `CCCCCCCC(=O)NC(C)(C)C(=O)NC(COC(C)(C)C)C(=O)NC(CC(C)C)C(=O)NC(C)(C)C(=O)NC(COC(C)(C)C)C(=O)NC(COC(C)(C)C)C(=O)NC(CC(C)C)C(=O)NC(C)(C)C(=O)NC(COC(C)(C)C)C(=O)NC(C(=O)NC(CC(C)C)C(=O)OC)C(C)CC` (stereo not drawn) (Octanoyl-[Aib]S(tBu)L[Aib]S(tBu)S(tBu)L[Aib]S(tBu)IL-OMe; configuration not given here), the TGI with SF-295 CNS was greater than 25 µM; in the experiment on IGROV1 ovarian it was 12.5 µM; with T-47D breast it was 23.5 µM; in the experiment on NCI-H522 lung, greater than 25 µM; with MOLT-4 leukemia, greater than 25 µM; in the experiment on MDA-MB-231 breast, 15.9 µM. In addition, the TGI was greater than 25 µM with K-562 leukemia; greater than 25 µM in the experiment with HS 578T breast; 23.4 µM in the experiment on 786-0 renal; 10.6 µM with HOP-92 NSCLC; 16.4 µM in the experiment with SNB-75 CNS.
As to `NCCCN1CCN(CC(=O)O)CCN(CCCN)CCN(CC(=O)O)CC1`, the TGI with SF-295 CNS was greater than 100 µM; with IGROV1 ovarian, greater than 100 µM; in the experiment with T-47D breast, greater than 100 µM; with NCI-H522 lung it was greater than 84.2 µM; with MOLT-4 leukemia, greater than 100 µM; in the experiment on MDA-MB-231 breast, greater than 100 µM. In addition, the TGI was greater than 100 µM with K-562 leukemia; greater than 100 µM in the experiment with HS 578T breast; greater than 85.3 µM with 786-0 renal; greater than 100 µM in the experiment on HOP-92 NSCLC; greater than 100 µM in the experiment on SNB-75 CNS.

(Values after PubChem BioAssay (NCI).)
